Holding throughout (assay type): cell-based
Experiment [1] has as its target human A2A receptor (Homo sapiens, UniProt P29274). The experiment is described as follows: Functional A2A receptor activity, recombinant HEK293 cells, cAMP (HTRF), agonist NECA. To be noted: read-out: Functional A2A receptor activity, HEK293, cAMP, IC50. The arrangement: expressed in transfected cells; host or cells: HEK293. The procedure, abridged: (§1)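 Cells were seeded, then treated with forskolin, test compound and agonist. After a 30 min incubation, HTRF detection reagents were added and intracellular cAMP was read. Values were scaled between an inhibitor control and DMSO before fitting.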

The target in experiment [2] is T1, human A2B receptor (Homo sapiens, UniProt P29275).
T1 construct: expressed in transfected cells; host or cells: HEK293
T1 sequence (P29275 1-332): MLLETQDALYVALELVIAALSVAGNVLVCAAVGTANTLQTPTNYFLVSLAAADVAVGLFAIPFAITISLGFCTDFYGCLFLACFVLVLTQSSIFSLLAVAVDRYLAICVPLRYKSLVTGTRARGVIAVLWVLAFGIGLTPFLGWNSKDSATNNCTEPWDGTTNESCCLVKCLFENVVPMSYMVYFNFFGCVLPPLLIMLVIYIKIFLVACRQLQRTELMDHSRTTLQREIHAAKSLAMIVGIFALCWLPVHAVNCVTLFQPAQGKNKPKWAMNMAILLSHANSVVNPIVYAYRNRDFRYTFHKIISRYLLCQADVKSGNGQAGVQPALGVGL
Description: Functional A2B receptor activity, recombinant HEK293 cells, cAMP (HTRF), agonist NECA. The following applies: read-out: Functional A2B receptor activity, HEK293, cAMP, IC50. The method, boiled down: as §1
Background: In TR-FRET formats the signal depends on donor and acceptor labels being close together.

Experiment [3] deals with T2, human A1 receptor (Homo sapiens, UniProt P30542).
T2 construct: expressed in transfected cells; host or cells: CHO
T2 sequence (P30542 1-326): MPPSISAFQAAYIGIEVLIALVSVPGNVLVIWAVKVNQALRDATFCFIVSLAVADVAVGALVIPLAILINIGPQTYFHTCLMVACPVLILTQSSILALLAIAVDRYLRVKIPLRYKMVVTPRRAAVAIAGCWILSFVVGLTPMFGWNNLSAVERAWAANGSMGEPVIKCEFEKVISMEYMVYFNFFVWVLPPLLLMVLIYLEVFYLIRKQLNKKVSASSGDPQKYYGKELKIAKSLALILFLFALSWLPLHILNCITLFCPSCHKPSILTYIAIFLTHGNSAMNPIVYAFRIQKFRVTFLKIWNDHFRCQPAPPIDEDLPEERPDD
The experiment is described as follows: Functional A1 receptor activity, recombinant CHO cells, cAMP (HTRF), forskolin, agonist CPA. The following applies: recombinant CHO cells, forskolin, agonist CPA; read-out: Functional A1 receptor activity, CHO, cAMP, IC50. The procedure, abridged:
(§2)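 Recombinant CHO lines carrying either receptor receive forskolin, compound and the matching agonist, CPA or IB-MECA. After 30 min, HTRF reagents are added and cAMP is quantified. Values are normalized to inhibitor and neutral DMSO controls, then fitted.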

Experiment [4] deals with T3, human A3 receptor (Homo sapiens, UniProt P0DMS8).
T3 construct: expressed in transfected cells; host or cells: CHO
T3 sequence (P0DMS8 1-318): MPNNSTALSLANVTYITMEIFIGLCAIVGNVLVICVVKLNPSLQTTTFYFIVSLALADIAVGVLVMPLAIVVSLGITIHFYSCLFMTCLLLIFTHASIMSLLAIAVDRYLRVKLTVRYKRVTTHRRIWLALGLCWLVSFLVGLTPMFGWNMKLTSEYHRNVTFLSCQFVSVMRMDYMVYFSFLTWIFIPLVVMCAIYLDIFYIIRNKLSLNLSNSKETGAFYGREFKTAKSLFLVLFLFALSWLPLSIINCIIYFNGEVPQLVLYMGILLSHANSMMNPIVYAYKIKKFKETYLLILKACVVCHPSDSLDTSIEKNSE
The experiment is described as follows: Functional A3 receptor activity, recombinant CHO cells, cAMP (HTRF), forskolin, agonist IB-MECA. The following applies: recombinant CHO cells, forskolin, agonist IB-MECA; read-out: Functional A3 receptor activity, CHO, cAMP, IC50. The method, boiled down: as §2

Where only a bound is given, the exact number is not on record here.

Chain of human A2A receptor (P29274 whole entry): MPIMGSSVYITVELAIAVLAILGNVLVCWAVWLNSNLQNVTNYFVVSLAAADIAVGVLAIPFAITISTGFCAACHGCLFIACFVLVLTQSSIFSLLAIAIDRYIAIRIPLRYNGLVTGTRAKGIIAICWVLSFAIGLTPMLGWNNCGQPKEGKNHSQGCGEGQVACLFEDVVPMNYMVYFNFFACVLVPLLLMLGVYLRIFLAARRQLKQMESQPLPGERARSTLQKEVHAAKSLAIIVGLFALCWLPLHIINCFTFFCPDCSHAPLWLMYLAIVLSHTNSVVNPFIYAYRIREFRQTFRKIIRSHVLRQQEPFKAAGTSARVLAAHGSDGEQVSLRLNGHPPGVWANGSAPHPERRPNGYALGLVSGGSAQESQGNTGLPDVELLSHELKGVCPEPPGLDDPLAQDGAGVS

On to `COc1ncc(C2=CCOCC2)c2sc(NC(=O)c3ccc(C(=O)N4CCC(C)(O)CC4)cc3)nc12` [Compound 129, N-[7-(3,6-Dihydro-2H-pyran-4-yl)-4-methoxy-thiazolo[4,5-c]pyridin-2-yl]-4-(4-hydroxy-4-methyl-piperidine-1-carbonyl)-benzamide], for which the half-inhibitory concentration (IC50) is less than 10 nM in experiment [1], less than 100 nM in experiment [2], less than 1000 nM in experiment [3] and more than 1000 nM in experiment [4].

For `COc1ncc(-c2csc(C)n2)c2sc(NC(=O)N3CCC4(CCOCC4)C3)nc12` [Compound 67, 8-Oxa-2-aza-spiro[4.5]decane-2-carboxylic acid [4-methoxy-7-(2-methyl-thiazol-4-yl)-thiazolo[4,5-c]pyridin-2-yl]-amide], the half-inhibitory concentration (IC50) was less than 10 nM in experiment [1], less than 100 nM in experiment [2], less than 1000 nM in experiment [3] and more than 1000 nM in experiment [4].

Take `COCCOCCn1cc(-c2cnc(OC)c3nc(NC(=O)N4CCC5(CCOCC5)C4)sc23)cn1` [Compound 103, 8-Oxa-2-aza-spiro[4.5]decane-2-carboxylic acid (4-methoxy-7-{1-[2-(2-methoxy-ethoxy)-ethyl]-1H-pyrazol-4-yl}-thiazolo[4,5-c]pyridin-2-yl)-amide]: the IC50 in experiment [1] was less than 10 nM; in experiment [2], less than 100 nM; in experiment [3] it was less than 1000 nM; in experiment [4], more than 1000 nM.

Take `COc1nc(F)c(C2CCOCC2)c2sc(NC(=O)N3CC[C@]4(CCCOC4)C3)nc12` [Compound 34, (R)-7-Oxa-2-aza-spiro[4.5]decane-2-carboxylic acid [6-fluoro-4-methoxy-7-(tetrahydro-pyran-4-yl)-thiazolo[4,5-c]pyridin-2-yl]-amide]: the IC50 in experiment [1] was less than 10 nM; in experiment [2], less than 100 nM; in experiment [3] it was more than 1000 nM; in experiment [4], more than 1000 nM.

For `COc1ncc(-c2cnn(CC3CCCCO3)c2)c2sc(NC(=O)N3CCC4(CCOCC4)C3)nc12` (centres unmarked) [Compound 84, 8-Oxa-2-aza-spiro[4.5]decane-2-carboxylic acid {4-methoxy-7-[1-(tetrahydro-pyran-2-ylmethyl)-1H-pyrazol-4-yl]-thiazolo[4,5-c]pyridin-2-yl}-amide], the IC50 in experiment [1] is less than 10 nM; in experiment [2] it was less than 100 nM; in experiment [3] it was less than 100 nM; in experiment [4] it was more than 1000 nM.

Take `COc1ncc(C2=CCOCC2)c2sc(NC(=O)Nc3ccc(N4N=C(C)CC4=O)cc3)nc12` [Compound 94, 3-[7-(3,6-dihydro-2H-pyran-4-yl)-4-methoxy-[1,3]thiazolo[4,5-c]pyridin-2-yl]-1-[4-(3-methyl-5-oxo-4,5-dihydro-1H-pyrazol-1-yl)phenyl]urea]: the IC50 in experiment [1] was less than 10 nM; in experiment [2], less than 100 nM; in experiment [3], more than 1000 nM; in experiment [4] it was more than 1000 nM.

Regarding `COc1ncc(C2=CCOCC2)c2sc(NC(=O)N3CCC(C(N)=O)CC3)nc12` [Compound 106, N1-[7-(3,6-dihydro-2H-pyran-4-yl)-4-methoxy-[1,3]thiazolo[4,5-c]pyridin-2-yl]piperidine-1,4-dicarboxamide], the IC50 is less than 10 nM in experiment [1], less than 100 nM in experiment [2], less than 1000 nM in experiment [3] and more than 1000 nM in experiment [4].

With `COc1nc(F)c(C2CCOCC2)c2sc(NC(=O)c3cnn(C)c3)nc12` [Compound 23, N-[6-fluoro-4-methoxy-7-(oxan-4-yl)-[1,3]thiazolo[4,5-c]pyridin-2-yl]-1-methyl-1H-pyrazole-4-carboxamide], the IC50 was less than 10 nM in experiment [1], less than 10 nM in experiment [2], less than 1000 nM in experiment [3] and more than 1000 nM in experiment [4].

Regarding `COc1ncc(-c2cnn(Cc3ccncc3)c2)c2sc(NC(=O)N3CCC4(CCOCC4)C3)nc12` [Compound 75, 8-Oxa-2-aza-spiro[4.5]decane-2-carboxylic acid [4-methoxy-7-(1-pyridin-4-ylmethyl-1H-pyrazol-4-yl)-thiazolo[4,5-c]pyridin-2-yl]-amide], the IC50 is less than 10 nM in experiment [1], less than 100 nM in experiment [2], more than 1000 nM in experiment [3] and more than 1000 nM in experiment [4].

In the case of `COc1ncc(C2=CCOCC2)c2sc(NC(=O)N3CCC(N4C(=O)C=CC4=O)CC3)nc12` [Compound 88, N-[7-(3,6-dihydro-2H-pyran-4-yl)-4-methoxy-[1,3]thiazolo[4,5-c]pyridin-2-yl]-4-(2,5-dioxo-2,5-dihydro-1H-pyrrol-1-yl)piperidine-1-carboxamide], the IC50 is less than 10 nM in experiment [1], less than 100 nM in experiment [2], more than 1000 nM in experiment [3] and more than 1000 nM in experiment [4].

Regarding `COc1nc(F)c(C2CCOCC2)c2sc(NC(=O)C3CC3)nc12` [Compound 28, Cyclopropanecarboxylic acid [6-fluoro-4-methoxy-7-(tetrahydro-pyran-4-yl)-thiazolo[4,5-c]pyridin-2-yl]-amide], the 50% inhibitory concentration (IC50) in experiment [1] was less than 10 nM; in experiment [2] it was less than 100 nM; in experiment [3], less than 1000 nM; in experiment [4], less than 1000 nM.

Take `COCCNc1ncc(C(=O)Nc2nc3c(OC)ncc(C4CCOCC4)c3s2)s1` [Compound 17, N-[4-methoxy-7-(oxan-4-yl)-[1,3]thiazolo[4,5-c]pyridin-2-yl]-2-[(2-methoxyethyl)amino]-1,3-thiazole-5-carboxamide]: the IC50 in experiment [1] is less than 10 nM; in experiment [2], less than 10 nM; in experiment [3], less than 1000 nM; in experiment [4], more than 1000 nM.

As to `COc1ncc(-c2ccc3cc[nH]c3c2)c2sc(NC(=O)N3CCC4(CCOCC4)C3)nc12` [Compound 9, N-[7-(1H-indol-6-yl)-4-methoxy-[1,3]thiazolo[4,5-c]pyridin-2-yl]-8-oxa-2-azaspiro[4.5]decane-2-carboxamide], the IC50 was less than 10 nM in experiment [1], less than 100 nM in experiment [2], more than 1000 nM in experiment [3] and more than 1000 nM in experiment [4].

In the case of `COCCn1cc(C(=O)Nc2nc3c(OC)nc(F)c(C4CCOCC4)c3s2)cn1` [Compound 22, N-[6-fluoro-4-methoxy-7-(oxan-4-yl)-[1,3]thiazolo[4,5-c]pyridin-2-yl]-1-(2-methoxyethyl)-1H-pyrazole-4-carboxamide], the IC50 in experiment [1] is less than 10 nM; in experiment [2] it was less than 10 nM; in experiment [3] it was less than 1000 nM; in experiment [4], less than 1000 nM.

On to `COc1ncc(C2=CCOCC2)c2sc(NC(=O)c3ccc(C(=O)N4CCN(C)CC4)cc3)nc12` [Compound 125, N-[7-(3,6-Dihydro-2H-pyran-4-yl)-4-methoxy-thiazolo[4,5-c]pyridin-2-yl]-4-(4-methyl-piperazine-1-carbonyl)-benzamide], for which the IC50 in experiment [1] is less than 10 nM; in experiment [2], less than 10 nM; in experiment [3], less than 1000 nM; in experiment [4], more than 1000 nM.

Turning to `COc1ncc(-c2cccc(Oc3cccnc3)c2)c2sc(NC(=O)N3CCC4(CCOCC4)C3)nc12` [Compound 160, 8-Oxa-2-aza-spiro[4.5]decane-2-carboxylic acid {4-methoxy-7-[3-(pyridin-3-yloxy)-phenyl]-thiazolo[4,5-c]pyridin-2-yl}-amide], the IC50 in experiment [1] is less than 10 nM; in experiment [2], less than 10 nM; in experiment [3] it was less than 1000 nM; in experiment [4], more than 1000 nM.

`COc1ncc(C2CCC(F)(F)CC2)c2sc(NC(=O)N3CCC4(CCOCC4)C3)nc12` [Compound 111, 8-Oxa-2-aza-spiro[4.5]decane-2-carboxylic acid [7-(4,4-difluoro-cyclohexyl)-4-methoxy-thiazolo[4,5-c]pyridin-2-yl]-amide]: the IC50 in experiment [1] was less than 10 nM; in experiment [2], less than 100 nM; in experiment [3], less than 1000 nM; in experiment [4] it was more than 1000 nM.

Broadly, the IC50 is the concentration at which inhibition is half-maximal.
